Measurements taken from ChEMBL document CHEMBL5257026, “Progress and prospects on DENV protease inhibitors” (Eur J Med Chem, 2016).
pEC50, pIC50, pKi: −log10 of the molar value. One block for each compound: values may come before it. Residues, ends and D or L forms follow the SMILES beside them.

Key:
[1] = Inhibition of DENV2 TSV01 NS2B-NS3 protease using BOC-GRR-AMC as substrate incubated for 30 mins by spectrofluorometeric assay; set-up: species or system dengue virus type 2
[2] = Inhibition of DENV2 NS2B-NS3 protease using Boc-Gly-Lys-Arg-AMC as substrate incubated for 30 mins by fluorescence assay; set-up: species or system dengue virus type 2
dengue virus type 2 = assay: Antiviral activity against DENV2 infected in Golden hamster BHK-21 cells assessed as reduction in viral titer incubated for 72 hrs by plaque-forming assay; format: functional, organism-based; conditions: BHK-21, 72 h
[3] = Inhibition of DENV2 N-terminally hexa-His tagged NS2B (49 to 92 residues) -NS3 (1 to 184 residues) protease using Ac-TTSTRR-pNA as substrate preincubated for 10 mins followed by substrate addition and measured after 120 mins by HTS assay; set-up: species or system dengue virus type 2
[4] = Inhibition of DENV4 NS2B-NS3 protease expressed in Escherichia coli BL21 (DE3) using Bz-Nle-Lys-Arg-Arg-AMC as substrate preincubated for 30 mins followed by substrate addition by fluorescence plate reader analysis; set-up: species or system dengue virus type 4
[5] = Inhibition of DENV3 NS2B-NS3 protease expressed in Escherichia coli BL21 (DE3) using Bz-Nle-Lys-Arg-Arg-AMC as substrate preincubated for 30 mins followed by substrate addition by fluorescence plate reader analysis; set-up: species or system dengue virus type 3
[6] = Inhibition of DENV2 NS2B-NS3 protease expressed in Escherichia coli BL21 (DE3) using Bz-Nle-Lys-Arg-Arg-AMC as substrate preincubated for 30 mins followed by substrate addition by fluorescence plate reader analysis; set-up: species or system dengue virus type 2
[7] = Inhibition of DENV1 NS2B-NS3 protease expressed in Escherichia coli BL21 (DE3) using Bz-Nle-Lys-Arg-Arg-AMC as substrate preincubated for 30 mins followed by substrate addition by fluorescence plate reader analysis; set-up: species or system dengue virus type 1
[8] = Selectivity index, ratio of CC50 for cytotoxicity against African green monkey Vero cells to EC50 for antiviral activity against DENV4 P11-08 infected in African green monkey Vero cells; format: toxicity, cell-based; conditions: read-out: Ratio CC50/EC50
[9] = Selectivity index, ratio of CC50 for cytotoxicity against African green monkey Vero cells to EC50 for antiviral activity against DENV3 P12-08 infected in African green monkey Vero cells; format: toxicity, cell-based; conditions: read-out: Ratio CC50/EC50
[10] = Selectivity index, ratio of CC50 for cytotoxicity against African green monkey Vero cells to EC50 for antiviral activity against DENV2 New Guinea C infected in African green monkey Vero cells; format: toxicity, cell-based; conditions: read-out: Ratio CC50/EC50
[11] = Selectivity index, ratio of CC50 for cytotoxicity against African green monkey Vero cells to EC50 for antiviral activity against DENV1 P03-08 infected in African green monkey Vero cells; format: toxicity, cell-based; conditions: read-out: Ratio CC50/EC50
[12] = Inhibition of DENV4 recombinant NS2B-NS3 protease expressed in Escherichia coli using Abz-RRRRSAG-nY-NH2 as substrate preincubated for 20 mins at 37 degC followed by substrate addition measured after 60 mins by fluorescence spectrophotometric analysis; set-up: species or system dengue virus type 4
[13] = Inhibition of DENV3 recombinant NS2B-NS3 protease expressed in Escherichia coli using Abz-RRRRSAG-nY-NH2 as substrate preincubated for 20 mins at 37 degC followed by substrate addition measured after 60 mins by fluorescence spectrophotometric analysis; set-up: species or system dengue virus type 3
[14] = Inhibition of DENV2 recombinant NS2B-NS3 protease expressed in Escherichia coli using Abz-RRRRSAG-nY-NH2 as substrate preincubated for 20 mins at 37 degC followed by substrate addition measured after 60 mins by fluorescence spectrophotometric analysis; set-up: species or system dengue virus type 2
[15] = Inhibition of DENV1 recombinant NS2B-NS3 protease expressed in Escherichia coli using Abz-RRRRSAG-nY-NH2 as substrate preincubated for 20 mins at 37 degC followed by substrate addition measured after 60 mins by fluorescence spectrophotometric analysis; set-up: species or system dengue virus type 1
[16] = Inhibition of DENV2 NS2B-NS3 protease using Bz-Nle-Lys-Arg-Arg-AMC as substrate preincubated for 15 mins followed by substrate addition by fluorescence assay; set-up: species or system dengue virus type 2

- pIC50 [3]: 4.65
Compound: c1ccc(-c2ccc(Nc3nnc(Nc4ccc(C5=NCCN5)cc4)c4ccccc34)cc2)cc1
- pEC50 (dengue virus type 2): 6.64

- pIC50 [4]: 5.70
- pIC50 [5]: 5.80
- pIC50 [6]: 5.64
- pIC50 [7]: 5.70
Compound: O=C(Nc1nc2cc(O)c(O)cc2s1)c1ccccc1Oc1ccc2cc(O)ccc2c1

- pIC50 [16]: 4.32
Compound: CCc1ccc(NS(=O)(=O)c2ccc(N3C(=O)c4ccccc4C3=O)cc2)cc1

The remaining lines, values behind:

Compound: O=C1c2c(O)ccc([N+](=O)[O-])c2C(=O)c2c([N+](=O)[O-])ccc(O)c21
- pKi [1]: 3.36
- pKi [2]: 5.38

Compound: Cc1ccc(S(=O)(=O)Nc2cc(SCC(=O)O)c(O)c3ccccc23)cc1[N+](=O)[O-]
- selectivity ratio [8]: 90.8
- selectivity ratio [9]: 27.7
- selectivity ratio [10]: 68.6
- selectivity ratio [11]: 69.3

Compound: NC(=O)[C@H](Cc1c[nH]c2ccccc12)NC(=O)[C@H](CS)NC(=O)[C@H](Cc1ccc(O)cc1)NC(=O)[C@@H](N)Cc1c[nH]c2ccccc12 (H-WYCW-NH2)
- pKi [12]: 4.95
- pKi [13]: 4.61
- pKi [14]: 5.32
- pKi [15]: 5.38
